Measurements reported in US11584741B2, “Crystalline forms of 4-(5-(4,7-dimethylbenzofuran-2-yl)-1,2,4-oxadiazol-3-yl)benzoic acid and processes for their preparation” (King's College London, priority 2016, dated 2023).
In brackets after ≈: the same amount, converted by molar mass. Entries after “also recorded” stand apart in the source; their conditions may differ. Blank lines part the entries; values can stand above or below the molecule they belong to.

What was measured:
[1] = Solubility studies, shake-flask method in 15 solvents; assay type: physicochemical; conditions: for solubility at 24 h: 20° C.
Procedure: The solubility of BHBA-001 (characterised by XRPD as Form 1) was determined in 15 solvents to study the initial polymorphic behaviour. A shake-flask method was applied in which solid was added stepwise (e.g., 10 mg at a time) to a known amount of solvent (e.g., 3 mL). The solubility was confirmed visually. After the addition, the suspension/solution was held for 24 hours at 20° C. in order to check for slow dissolution or recrystallization. If the solid was not completely dissolved, the suspension was heated to 50° C. to encourage dissolution. The solvent was then removed by evaporation, in some cases, with the help of anti-solvent. The resulting solid was analysed using XRPD.

[2] = molecular target: T1, RARβ (Homo sapiens, UniProt P10826); assay: Transcriptional transactivation assay, gal4-RAR fusion receptor / luciferase reporter in COS-7 cells; assay type: cell-based; conditions: Table 21
T1 construct: expressed in transfected cells; host or cells: COS-7
T1 sequence (P10826 183-417 limits assumed): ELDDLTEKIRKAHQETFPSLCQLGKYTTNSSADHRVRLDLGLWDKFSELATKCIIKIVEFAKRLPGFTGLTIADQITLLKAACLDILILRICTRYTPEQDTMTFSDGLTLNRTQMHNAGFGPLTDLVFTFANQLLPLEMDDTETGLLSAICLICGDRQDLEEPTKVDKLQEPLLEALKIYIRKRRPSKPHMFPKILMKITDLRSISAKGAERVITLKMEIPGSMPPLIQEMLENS
Procedure: (§1) Transcriptional transactivation assays were performed with gal4 fusion receptor constructs, created using each of the RAR ligand binding domains of either mouse or human, co-transfected with the pFR-luc (Stratagene) reporter construct in COS-7 cells.
(§2) Briefly, on day 1, 96 well plates were seeded with 8000 cells per well then left to recover overnight. On day 2, the cells were co-transfected with 100 ng of reporter plasmid and 10 ng of the appropriate receptor plasmid per well using lipofectamine (Invitrogen). On day 3, the lipofectamine containing media was replaced by a DMEM without phenol red, followed by the addition of test compound dissolved in 1 μL of DMSO to each well's 100 μL total volume. Finally, on day 4, the cells were lysed and their luciferase substrate was provided by the BrightGlo™ reagent (Promega), the plates were then read on the MicroBeta TrLux™ (Perkin Elmer).
(§3) Data for test compounds are quoted as EC50 values. Where replicate data has been generated, the data are quoted as the mean EC50 from the separate experiments.

[3] = molecular target: T2, RARβ (Mus musculus, UniProt P22605); assay: as above; assay type: cell-based
T2 construct: expressed in transfected cells; host or cells: COS-7
T2 sequence (P22605 210-444 limits assumed): T1 sequence (P10826 183-417 limits assumed)
Procedure: as §1, §2, §3

[4] = system: rats with severed and re-implanted sensory roots at the level of the left forelimb; assay: Sensory roots of four DRG severed and re-implanted into the spinal cord, sticky tape tests; assay type: in vivo; conditions: rat, after 5 weeks, 1 mg/kg three times a week
Procedure: In another example of nerve injury, the four sensory roots from each of four DRG at the level of the left forelimb were severed and re-implanted into the spinal cord.
The results are illustrated in Borthwick et al., 2016. […] Rats were treated with 1 mg/kg of the test compound or vehicle two days after lesion, and then three times a week for the period of the experiment. Error bars show SEM. ***P<0.001, students t test, n=3-4 rats for each treatment group. At weeks 3, 4, and 5, there was significant difference between the rats treated with RARβ agonist as compared to rats treated with other retinoid agonists and vehicle.

[5] = Dynamic vapour sorption (DVS) hygroscopicity; assay type: physicochemical; conditions: from DVS, 0% to 95% RH
Procedure: The DVS studies were performed using a Surface Measurement Systems Ltd. DVS-1 No Video (Equipment #2126).
The sample was weighed in a glass pan, typically 20-30 mg, and equilibrated at 0% RH. After the material had dried, the relative humidity (RH) was increased with 10% per step for 1 hour per increment, ending at 95% RH.
The software used for data collection was DVSWn v3.01 No Video. Data analysis was performed using DVS Standard Analysis Suite v6.3.0 (Standard).
To determine the hygroscopicity of Form 1, a DVS plot was measured at 25° C. for a double sorption-desorption cycle. The total mass uptake was 8.7% w/w between 0% and 95% RH, which characterised Form 1 as a hygroscopic form. The uptake was reversible and reproducible.
To determine the hygroscopicity of Form 4, a DVS plot was measured at 25° C. for a double sorption-desorption cycle. The total mass uptake was 0.1% between 0% and 95% RH, which characterises Form 4 as a non-hygroscopic form.

[6] = Stability studies on storage (appearance, drug content, water content, drug-related impurities); assay type: physicochemical
Procedure: Stability studies were performed as follows. Samples were packaged in double low density polyethylene bags, sealed with plastic ties, and placed in high-density polyethylene (HDPE) drums.
The samples were tested periodically for visual appearance, drug content (by HPLC), water content (by Karl Fischer titration), and drug-related impurities (by HPLC).
Drug content, corrected to a water and solvent free basis, is calculated from the following equation: Content (%)=100−(water+solvents+residue on ignition+related impurities).
Drug-related impurities were determined using a reverse-phase gradient HPLC method with UV detection at 254 nm, using a 150 mm×4.6 mm, 3 μm Waters Atlantis T3 column, with the following parameters: […]

[7] = system: cerebellar neurons; assay: Neurite outgrowth assay, cerebellar neurons in the presence of myelin / MAG; assay type: cell-based, rat; conditions: for Effect on RARβ agonist (CD2019) mediated neurite outgrowth: cerebellar neurons cultured with CD2019 plus inhibitor; for Effect on RARβ agonist (CD2019) mediated neurite outgrowth in the presence of MAG: cerebellar neurons
Procedure: Cerebellar neurons isolated from post-natal day 3 rat pups were cultured over monolayers of parental 3T3 cells in control media, or media supplemented with a recombinant MAG-Fc chimera (R&D Systems) used at a final concentration of 20 μg/mL MAG-Fc. The monolayers were established for 24 hours prior to addition of the neurons and the co-cultures were maintained for approximately 21 hours. Following careful fixation with 4% paraformaldehyde, the neurons were immuno-stained with a GAP-43 antibody (from Graham Wilkin, Imperial College), dilution of 1:500, and the mean length of the longest neurite per cell was measured for approximately 120-150 neurons as previously described (see, e.g., Williams et al., 2005). DRG and cortical explants were obtained from adult rats, they were cultured in cellogen as previously described (see, e.g., Corcoran and Maden, 1999). Three explants per treatment were used. Neurite outgrowth was assessed 3 days later by immunohistochemistry with NF200 (Sigma, dilution of 1:200). The average lengths of the neurites were measured using image pro plus software. Media consisted of DMEM-F12 (Invitrogen) containing N2 (Invitrogen) supplemented with glucose (33 mM) and glutamine (2 mM).

[8] = after 24 months at 25° C./60% RH and 6 months at 40° C./75% RH

SMILES: Cc1ccc(C)c2oc(-c3nc(-c4ccc(C(=O)O)cc4)no3)cc12 [Form 1, 4-(5-(4,7-dimethylbenzofuran-2-yl)-1,2,4-oxadiazol-3-yl)benzoic acid]
Hygroscopicity characterisation [5]: hygroscopic

SMILES: CCCCCCOC(=O)[C@]1(O)C[C@@H]2O[C@@]1(C)n1c3ccccc3c3c4c(c5c6ccccc6n2c5c31)C(=O)NC4 [KT5720]
Effect on RARβ agonist (CD2019) mediated neurite outgrowth [7]: little or no effect
Effect on RARβ agonist (CD2019) mediated neurite outgrowth in the presence of MAG [7]: does not affect

SMILES: O=c1cc(N2CCOCC2)oc2c(-c3ccccc3)cccc12 [LY295002]
Effect on RARβ agonist (CD2019) mediated neurite outgrowth [7]: severely impeded
Effect on RARβ agonist (CD2019) mediated neurite outgrowth in the presence of MAG [7]: prevents

Further lines, with some results ahead:

Solubility (in words) ([1]; in most solvents of the 15 tested): only poorly soluble
solubility at 24 h ([1]; organic solvent or mixture, thermodynamic from solid, 1-propanol, starting solid Form 1): < 3000 µg/mL
solubility at 24 h ([1]; organic solvent or mixture, thermodynamic from solid, 2-methyltetrahydrofuran, starting solid Form 1): 5000 to 10000 µg/mL (≈ 15 to 29.9 mM)
solubility at 24 h ([1]; organic solvent or mixture, thermodynamic from solid, 2-propanol, starting solid Form 1): < 3000 µg/mL
solubility at 24 h ([1]; organic solvent or mixture, thermodynamic from solid, acetic acid, starting solid Form 1): < 4000 µg/mL
solubility ([1]; organic solvent or mixture, thermodynamic from solid, acetone, at 50° C. (footnote), starting solid Form 1): < 3000 µg/mL
solubility at 24 h ([1]; organic solvent or mixture, thermodynamic from solid, acetonitrile, starting solid Form 1): < 4000 µg/mL
solubility at 24 h ([1]; organic solvent or mixture, thermodynamic from solid, dichloromethane, starting solid Form 1): < 3000 µg/mL
solubility at 24 h ([1]; organic solvent or mixture, thermodynamic from solid, ethanol, starting solid Form 1): < 4000 µg/mL
solubility at 24 h ([1]; organic solvent or mixture, thermodynamic from solid, ethyl acetate, starting solid Form 1): < 4000 µg/mL
solubility at 24 h ([1]; organic solvent or mixture, thermodynamic from solid, isopropyl acetate, starting solid Form 1): 4000 µg/mL (≈ 12 mM)
solubility at 24 h ([1]; organic solvent or mixture, thermodynamic from solid, methyl tert-butyl ether, starting solid Form 1): < 3000 µg/mL
solubility at 24 h ([1]; organic solvent or mixture, thermodynamic from solid, n-heptane, starting solid Form 1): < 3000 µg/mL
solubility at 24 h ([1]; organic solvent or mixture, thermodynamic from solid, tetrahydrofuran (THF), starting solid Form 1): 9000 to 30000 µg/mL (≈ 26.9 to 89.7 mM)
solubility at 24 h ([1]; organic solvent or mixture, thermodynamic from solid, toluene, starting solid Form 1): < 3000 µg/mL
solubility at 24 h ([1]; thermodynamic from solid, water, starting solid Form 1): < 3000 µg/mL
Selectivity over RARα [2]: 23-fold
Selectivity over RARγ [2]: 5-fold
Selectivity over RARγ ([3]; Mouse, Table 21): 6-fold
EC50 ([3]; Table 20, mean of three or more determinations, species not given, value equals mouse value of Table 21): < 2 nM
SMILES: Cc1ccc(C)c2oc(-c3nc(-c4ccc(C(=O)O)cc4)no3)cc12 [BHBA-001, 4-(5-(4,7-dimethylbenzofuran-2-yl)-1,2,4-oxadiazol-3-yl)benzoic acid]
Behavioural test (sticky tape) [4]: performed as well as non-lesioned animals

Storage time shown to be stable ([6]; 25° C./60% RH): at least 24 months
Drug Content ([6]; 25° C./60% RH, 3 months): 98.7 % w/w
Drug-Related Impurities ([6]; 25° C./60% RH, 3 months): 0.06 % area
Visual Appearance ([6]; 25° C./60% RH, 3 months): As initial
Water content ([6]; 25° C./60% RH, 3 months): <0.1 % w/w
Drug Content ([6]; 25° C./60% RH, 6 months): 100.2 % w/w
Drug-Related Impurities ([6]; 25° C./60% RH, 6 months): 0.05 % area
Visual Appearance ([6]; 25° C./60% RH, 6 months): As initial
Water content ([6]; 25° C./60% RH, 6 months): <0.1 % w/w
Drug Content ([6]; 25° C./60% RH, 9 months): 99.2 % w/w
Drug-Related Impurities ([6]; 25° C./60% RH, 9 months): 0.03 % area
Visual Appearance ([6]; 25° C./60% RH, 9 months): As initial
Water content ([6]; 25° C./60% RH, 9 months): <0.1 % w/w
Drug Content ([6]; 25° C./60% RH, 12 months): 100.4 % w/w
Drug-Related Impurities ([6]; 25° C./60% RH, 12 months): 0.03 % area
Visual Appearance ([6]; 25° C./60% RH, 12 months): Off-white
Water content ([6]; 25° C./60% RH, 12 months): <0.1 % w/w
Drug Content ([6]; 25° C./60% RH, 18 months): 101.1 % w/w
Drug-Related Impurities ([6]; 25° C./60% RH, 18 months): 0.07 % area
Visual Appearance ([6]; 25° C./60% RH, 18 months): Off-white
Water content ([6]; 25° C./60% RH, 18 months): <0.1 % w/w
Drug Content ([6]; 25° C./60% RH, 24 months): 101.5 % w/w
Drug-Related Impurities ([6]; 25° C./60% RH, 24 months): <0.03 % area
Visual Appearance ([6]; 25° C./60% RH, 24 months): As initial
Water content ([6]; 25° C./60% RH, 24 months): <0.1 % w/w
Storage time shown to be stable ([6]; 40° C./75% RH): ≥ 6 months
Drug Content ([6]; 40° C./75% RH, 3 months): 98.3 % w/w
Drug-Related Impurities ([6]; 40° C./75% RH, 3 months): 0.10 % area
Visual Appearance ([6]; 40° C./75% RH, 3 months): As initial
Water content ([6]; 40° C./75% RH, 3 months): <0.1 % w/w
Drug Content ([6]; 40° C./75% RH, 6 months): 99.8 % w/w
Drug-Related Impurities ([6]; 40° C./75% RH, 6 months): 0.05 % area
Visual Appearance ([6]; 40° C./75% RH, 6 months): As initial
Water content ([6]; 40° C./75% RH, 6 months): <0.1 % w/w
Drug Content ([6]; Initial, 0 months): 100.1 % w/w
Drug-Related Impurities ([6]; Initial, 0 months): 0.03 % area
Visual Appearance ([6]; Initial, 0 months): White
Water content ([6]; Initial, 0 months): <0.1 % w/w
Change of appearance on storage [6, 8]: essentially unchanged
Change of drug content on storage [6, 8]: essentially unchanged
Change of drug-related impurity levels on storage [6, 8]: essentially unchanged
Change of water content on storage [6, 8]: essentially unchanged
Stability at ambient conditions (in words) ([6]; ambient conditions): stable for many months
SMILES: Cc1ccc(C)c2oc(-c3nc(-c4ccc(C(=O)O)cc4)no3)cc12 [Form 4, 4-(5-(4,7-dimethylbenzofuran-2-yl)-1,2,4-oxadiazol-3-yl)benzoic acid]
Hygroscopicity characterisation [5]: low hygroscopicity; also recorded: non-hygroscopic
